The record followed here is US20070116743A1, “Dietary supplement enhancing the muscular energy metabolism, comprising an alkanoyl carnitine and ribose” (Sigma-Tau Industrie Farmaceutiche Riunite S.p.A., priority 2000, published 2007).

Each structure is given as a SMILES string.

The subject of experiment [1] is papillary muscle of rabbit heart. As to the kind of experiment: Test of ATP concentrations in papillary muscle of heart subjected to anoxia. Type of experiment: in vivo, New Zealand rabbits. The following applies: summary of Table 1. From the text: Test of ATP Concentrations in Heart Subjected to Anoxia In this test the technique adopted was the one using papillary muscle of rabbit heart perfused and subjected to anoxia which, as is known, leads to an impoverishment of its ATP energy reserves. […] At the end of the third day of treatment, all the animals were sacrificed and their hearts excised. Sections of papillary muscle measuring 1 mm in diameter and 4-5 mm in thickness were isolated from the excised hearts. The isolated papillary muscle was perfused in a thermostatic bath with a saturated 100% O2 solution. The anoxic state was obtained by introducing 100% N2 instead of O2 into the bath. For the measurement of the ATP concentrations in the […] muscle the method described by […] was adopted ([…]. Methods in Enzymology 111 N.Y. Acad. Press., 879, 1957).

In experiment [2] the test system is ventricular arrhythmias induced by left coronary ligation in the rat. The experiment in a line: Experimental myocardial anoxia test: ventricular arrhythmias induced by left coronary ligation. It is filed as in vivo. The following applies: for N. of ectopic contractions during 30 minutes after ligation / Start of arrhythmias after: rat, left coronary ligation, slow injection into left ventricle 15 minutes before ligation (100 mg/kg each agent; carnitine combination 25 mg/kg per component); for Reduction in number of ectopic contractions compared to controls (in words): summary of Table 2. From the text: Experimental Myocardial Anoxia Test
Adopting the technique described by Selych (Selych et al., Angiology, 11, 398, 1960) and modified by Clark (Clark C., J. Pharmacol. Methods, 3, 357, 1980), these tests were used to evaluate the protective activity of isovaleryl L-carnitine, propionyl L-carnitine, carnitine combination, ribose and various combinations of the same against ventricular arrhythmias induced by left coronary ligation in the rat.
Coronary occlusion and the resulting myocardial anoxia lead, after 5-8 minutes, to the onset of arrhythmias. In these tests, ventricular ectopic contractions were counted for a period of 30 minutes after ligation both in control rats and in rats that had received slow injections into the left ventricle, 15 minutes before ligation, of a solution containing isovaleryl L-carnitine alone (100 mg/kg), propionyl L-carnitine alone (100 mg/kg), or carnitine combination alone consisting of propionyl L-carnitne (25 mg/kg), acetyl L-carnitine (25 mg/kg) and isovaleryl L-carnitine (25 mg/kg) or ribose alone (100 mg/kg), or a combination of ribose plus isovaleryl L-carnitine or propionyl L-carnitine or a combination of ribose plus carnitine combination at the doses described above.

For the compound `CC(C)CC(=O)O[C@H](CC(=O)[O-])C[N+](C)(C)C` [Isovaleryl L-carnitine], in experiment [1], the “Protection of ATP in papillary muscle against anoxia (in words)” value was “partly protecting”. Further, in experiment [2], the “N. of ectopic contractions during 30 minutes after ligation” value turned out to be 860 ± 75, the “Start of arrhythmias after” value lay in the range of 5 to 7 min and the “Reduction in number of ectopic contractions compared to controls (in words)” value is reported as “only slight reductions”.
As for `CCC(=O)O[C@H](CC(=O)[O-])C[N+](C)(C)C` [Propionyl L-carnitine], the “Protection of ATP in papillary muscle against anoxia (in words)” value in experiment [1] was “partly protecting”. Moreover, in experiment [2], the “N. of ectopic contractions during 30 minutes after ligation” value came to 830 ± 86, the “Start of arrhythmias after” value fell in the range of 5 to 8 min and the “Reduction in number of ectopic contractions compared to controls (in words)” value is on record as “only slight reductions”.
The corresponding values for `O=C[C@H](O)[C@H](O)[C@H](O)CO` [Ribose] are “partly protecting”, 855 ± 110, 5 to 7 min and “only slight reductions”.
